{"source": "ChEMBL document CHEMBL5038592", "about": "“Discovery of MK-8153, a Potent and Selective ROMK Inhibitor and Novel Diuretic/Natriuretic” (J Med Chem, 2021)", "key": {"[1]": {"molecular_target": "T1, ATP-sensitive inward rectifier potassium channel 1 (Homo sapiens, UniProt P48048)", "T1 sequence (P48048 whole entry)": "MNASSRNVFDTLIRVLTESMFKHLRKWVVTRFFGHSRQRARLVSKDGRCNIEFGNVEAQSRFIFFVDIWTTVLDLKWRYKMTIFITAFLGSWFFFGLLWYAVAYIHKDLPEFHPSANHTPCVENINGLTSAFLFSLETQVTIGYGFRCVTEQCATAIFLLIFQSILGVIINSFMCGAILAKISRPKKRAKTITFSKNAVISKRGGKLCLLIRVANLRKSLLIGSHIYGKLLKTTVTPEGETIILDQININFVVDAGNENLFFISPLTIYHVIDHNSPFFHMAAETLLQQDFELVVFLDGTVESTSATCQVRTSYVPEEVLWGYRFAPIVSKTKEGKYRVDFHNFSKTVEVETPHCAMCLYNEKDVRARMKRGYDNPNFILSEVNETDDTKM", "test": "Inhibition of human ROMK expressed in CHO cells by whole cell voltage clamp electrophysiology assay", "assay_type": "cell-based"}, "[2]": {"test": "Oral bioavailability in Wistar Han rat at 2 mg/kg", "assay_type": "ADME, organism-based", "conditions": "in vivo"}, "[3]": {"test": "Clearance in Beagle dog at 2 mg/kg, po or 1 mg/kg, iv", "assay_type": "ADME, organism-based, Canis lupus familiaris", "conditions": "in vivo"}, "[4]": {"test": "Volume of distribution at steady state in Beagle dog at 2 mg/kg, po or 1 mg/kg, iv", "assay_type": "ADME, organism-based, Canis lupus familiaris", "conditions": "in vivo, read-out: Vdss"}, "[5]": {"test": "Effective half life in Beagle dog at 2 mg/kg, po or 1 mg/kg, iv", "assay_type": "ADME, organism-based, Canis lupus familiaris", "conditions": "in vivo, read-out: t1/2eff (converted)"}, "[6]": {"test": "Terminal half life in Beagle dog at 2 mg/kg, po or 1 mg/kg, iv", "assay_type": "ADME, organism-based, Canis lupus familiaris", "conditions": "in vivo, read-out: beta t1/2 (converted)"}, "[7]": {"test": "Volume of distribution at steady state in rhesus monkey at 2 mg/kg, po or 1 mg/kg, iv", "assay_type": "ADME, organism-based, Macaca mulatta", "conditions": "in vivo, read-out: Vdss"}, "[8]": {"test": "Effective half life in rhesus monkey at 2 mg/kg, po or 1 mg/kg, iv", "assay_type": "ADME, organism-based, Macaca mulatta", "conditions": "in vivo, read-out: t1/2eff (converted)"}, "Rattus norvegicus [9]": {"test_system": "Rattus norvegicus", "test": "Antihypertensive activity in spontaneous hypertensive rat model assessed as decrease in systolic blood pressure at 3 mg/kg, po QD observed for 3 days", "assay_type": "functional, organism-based", "conditions": "time 3.0 day"}, "[10]": {"test": "Metabolic stability in Wistar Han rat liver microsomes by LC/MS analysis", "assay_type": "ADME, Microsome"}, "[11]": {"test": "Metabolic stability in human liver microsomes by LC/MS analysis", "assay_type": "ADME, Microsome"}, "Rattus norvegicus [12]": {"test_system": "Rattus norvegicus", "test": "Diuretic activity in orally dosed spontaneous hypertensive rat assessed as increase in sodium excretion treated for 3 days measured after 0 to 4 hrs of dosing", "assay_type": "functional, organism-based", "conditions": "time 3.0 day"}, "[13]": {"test": "Drug metabolism in rhesus monkey hepatocytes assessed as N-acetylglucosamine conjugate metabolite formation by LC/MS analysis", "assay_type": "ADME, cell-based, Macaca mulatta, Hepatocyte"}, "[14]": {"molecular_target": "T2, ATP-sensitive inward rectifier potassium channel 10 (Homo sapiens, UniProt P78508)", "T2 sequence (P78508 whole entry)": "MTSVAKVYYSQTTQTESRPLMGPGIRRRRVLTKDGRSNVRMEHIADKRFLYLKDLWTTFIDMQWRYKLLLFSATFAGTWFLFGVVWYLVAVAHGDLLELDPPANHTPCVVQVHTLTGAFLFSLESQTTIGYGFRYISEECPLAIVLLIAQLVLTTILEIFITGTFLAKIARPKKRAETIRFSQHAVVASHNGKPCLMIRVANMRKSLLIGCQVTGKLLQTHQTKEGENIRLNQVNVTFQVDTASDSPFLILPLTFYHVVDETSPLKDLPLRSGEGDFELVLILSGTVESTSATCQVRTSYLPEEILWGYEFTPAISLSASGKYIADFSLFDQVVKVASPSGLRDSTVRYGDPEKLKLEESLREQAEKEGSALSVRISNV", "test": "Inhibition of Kir4.1 (unknown origin)"}, "Cytochrome P450 2C8": {"molecular_target": "T3, Cytochrome P450 2C8 (Homo sapiens, UniProt P10632)", "T3 sequence (P10632 whole entry)": "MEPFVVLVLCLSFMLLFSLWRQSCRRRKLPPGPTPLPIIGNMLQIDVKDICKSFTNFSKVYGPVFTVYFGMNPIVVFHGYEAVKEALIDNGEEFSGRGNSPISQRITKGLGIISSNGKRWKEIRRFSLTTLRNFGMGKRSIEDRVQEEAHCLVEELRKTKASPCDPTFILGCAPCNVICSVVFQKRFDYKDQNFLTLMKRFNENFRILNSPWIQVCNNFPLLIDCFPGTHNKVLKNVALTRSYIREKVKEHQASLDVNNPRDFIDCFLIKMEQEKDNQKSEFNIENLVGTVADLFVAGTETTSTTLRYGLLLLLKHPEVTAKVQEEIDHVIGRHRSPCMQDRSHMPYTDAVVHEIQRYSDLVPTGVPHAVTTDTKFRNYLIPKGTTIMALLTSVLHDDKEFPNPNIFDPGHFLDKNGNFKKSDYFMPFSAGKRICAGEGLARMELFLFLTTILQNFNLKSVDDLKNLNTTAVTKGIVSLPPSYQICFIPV", "test": "Inhibition of CYP2C8 (unknown origin)"}, "[15]": {"test": "Toxicity in rat assessed as change in body weight at 5 to 300 mg/kg treated for 7 days", "assay_type": "organism-based", "conditions": "in vivo, 168 h, dose 5-300 mg/kg, time 7 day"}}, "data": [{"smiles": "CC1=C(N2CCC3(CCN(C[C@H](O)c4ccc5c(c4C)COC5=O)CC3)C2=O)COC1=O", "values": [{"measurement": "IC50", "setting": "[1]", "value": 0.005, "unit": "µM"}, {"measurement": "bioavailability", "setting": "[2]", "value": 53, "unit": "%"}, {"measurement": "clearance", "setting": "[3]", "value": 8.7, "unit": "mL/min/kg"}, {"measurement": "Vd", "setting": "[4]", "value": 5.2, "unit": "L/kg"}, {"measurement": "half-life", "setting": "[5]", "value": 6.8, "unit": "h"}, {"measurement": "half-life", "setting": "[6]", "value": 9.1, "unit": "h"}, {"measurement": "Vd", "setting": "[7]", "value": 7.9, "unit": "L/kg"}, {"measurement": "half-life", "setting": "[8]", "value": 1.8, "unit": "h"}, {"measurement": "Activity", "setting": "Rattus norvegicus [9]", "value": "Dose-Dependent Effect"}, {"measurement": "Stability", "setting": "[10]", "value": "Stable"}, {"measurement": "Stability", "setting": "[11]", "value": "Stable"}, {"measurement": "Activity", "setting": "Rattus norvegicus [12]", "value": "Dose-Dependent Effect"}, {"measurement": "Drug metabolism", "setting": "[13]", "value": "Metabolite_Detected"}, {"measurement": "IC50", "setting": "[14]", "value": "> 100", "unit": "µM"}, {"measurement": "IC50", "setting": "Cytochrome P450 2C8", "value": "> 50", "unit": "µM"}, {"measurement": "Activity", "setting": "[15]", "value": "Non-Toxic"}]}]}
